pIC50: −log10 of the molar value.
Molecular target: T1, Fatty-acid amide hydrolase 1 (Homo sapiens, UniProt O00519)
T1 sequence (O00519 whole entry): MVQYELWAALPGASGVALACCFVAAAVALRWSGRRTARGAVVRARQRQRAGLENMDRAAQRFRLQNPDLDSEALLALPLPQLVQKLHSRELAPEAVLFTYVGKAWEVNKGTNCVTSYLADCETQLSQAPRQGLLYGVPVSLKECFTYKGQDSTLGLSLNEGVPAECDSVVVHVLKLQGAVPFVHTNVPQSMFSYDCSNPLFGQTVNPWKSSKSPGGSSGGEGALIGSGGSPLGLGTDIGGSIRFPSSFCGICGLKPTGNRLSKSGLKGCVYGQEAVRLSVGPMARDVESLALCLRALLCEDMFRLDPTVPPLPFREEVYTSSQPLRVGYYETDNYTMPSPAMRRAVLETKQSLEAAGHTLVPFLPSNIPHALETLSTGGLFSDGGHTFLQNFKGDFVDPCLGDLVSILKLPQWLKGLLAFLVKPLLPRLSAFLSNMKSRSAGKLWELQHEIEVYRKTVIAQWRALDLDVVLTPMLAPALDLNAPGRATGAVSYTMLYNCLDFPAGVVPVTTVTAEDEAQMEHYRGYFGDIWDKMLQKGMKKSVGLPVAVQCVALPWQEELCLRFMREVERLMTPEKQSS
Assay: Inhibition Assay: Human FAAH 1 activity was determined by measuring the liberation of the highly fluorescent 7-amino, 4-methyl Coumarin (AMC) generated during hydrolysis of the substrate arachidonoyl 7-amino, 4-methyl coumarin amide (AAMCA) by FAAH. Inhibition of human FAAH 1 activity was determined as a percentage reduction of the fluorescence determined in the absence of compound.The assay was carried out in black-walled, clear bottom, 384-well plates. 27.5 ul of human FAAH 1 protein (in FAAH assay buffer: 50 mM Hepes, 0.01% Triton X-100, 1 mM EDTA, 0.5 mg/ml BSA (fatty-acid-free), pH 8.2) was pre-incubated, at 10 nM, with increasing concentrations of compounds (2.5 ul in 100% DMSO) for 1 hour at room temperature. 2.5 ul of DMSO was added for total controls (100% FAAH activity) and 2.5 ul of URB-597, a known inhibitor of FAAH activity, (at a final, saturating, concentration of 10 uM) was used for non-specific controls (0 FAAH activity).

Compound: COc1ccccc1-c1ccc(OC2CN(C(=O)Nc3cccnn3)C2)nc1
- pIC50: 7.92
